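How tested: cells in 96-well plates exposed to compound for 48 hours at five concentrations. TGI denotes the concentration required for complete inhibition of growth.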
Tests used:
Assay in all cases: NCI anticancer screen, dose series, 48 h
[1] = tested on: HL-60(TB) leukemia
[2] = tested on: SNB-78 CNS
[3] = tested on: RXF 393 renal
[4] = tested on: NCI-H23 lung
[5] = tested on: NCI-H226 lung
[6] = tested on: UACC-257 melanoma
[7] = tested on: SW-620 colon
[8] = tested on: NCI-H460 lung
[9] = tested on: A498 renal
[10] = tested on: MOLT-4 leukemia
[11] = tested on: HCT-15 colon
[12] = tested on: SF-268 CNS
[13] = tested on: K-562 leukemia
[14] = tested on: HT29 colon
[15] = tested on: M14 melanoma
[16] = tested on: CCRF-CEM leukemia
[17] = tested on: SF-295 CNS
[18] = tested on: HCT-116 colon
[19] = tested on: COLO 205 colon
[20] = tested on: HCC-2998 colon
[21] = tested on: HOP-92 NSCLC
[22] = tested on: DMS 273 small cell lung
[23] = tested on: SR leukemia
[24] = tested on: SN12C renal
[25] = tested on: RPMI-8226 leukemia
[26] = tested on: IGROV1 ovarian
[27] = tested on: OVCAR-4 ovarian
[28] = tested on: OVCAR-8 ovarian
[29] = tested on: TK-10 renal
[30] = tested on: HOP-18 NSCLC
[31] = tested on: SK-MEL-2 melanoma
[32] = tested on: EKVX NSCLC
[33] = tested on: DMS 114 small cell lung
[34] = tested on: CAKI-1 renal
[35] = tested on: LXFL 529 NSCLC
[36] = tested on: A549 NSCLC
[37] = tested on: SNB-75 CNS
[38] = tested on: KM12 colon
[39] = tested on: U251 CNS
[40] = tested on: ACHN renal
[41] = tested on: XF 498 CNS
[42] = tested on: OVCAR-5 ovarian
[43] = tested on: SK-MEL-28 melanoma
[44] = tested on: MALME-3M melanoma
[45] = tested on: RXF-631 renal
[46] = tested on: SNB-19 CNS
[47] = tested on: SF-539 CNS
[48] = tested on: SK-MEL-5 melanoma
[49] = tested on: MDA-MB-231 breast
[50] = tested on: MCF7 breast
[51] = tested on: MDA-MB-435
[52] = tested on: DU-145 prostate
[53] = tested on: BT-549 breast
[54] = tested on: NCI/ADR-RES ovarian
[55] = tested on: M19-MEL melanoma
[56] = tested on: HS 578T breast
[57] = tested on: DLD-1 colon
[58] = tested on: 786-0 renal
[59] = tested on: NCI-H522 lung
[60] = tested on: KM20L2 colon
[61] = tested on: OVCAR-3 ovarian
[62] = tested on: MDA-N
[63] = tested on: SK-OV-3 ovarian
[64] = tested on: PC-3 prostate
[65] = tested on: LOX IMVI melanoma
[66] = tested on: T-47D breast
[67] = tested on: HOP-62 NSCLC
[68] = tested on: UO-31 renal
[69] = tested on: UACC-62 melanoma

In the case of `O=C(Nc1ccc2[nH]c3c(-c4ccccc4)nccc3c2c1)c1ccccc1[N+](=O)[O-]`, the TGI [1] is reported as 10.6 µM, the TGI [2] is reported as over 100 µM and the TGI [3] is reported as 3.69 µM. For the same compound, the TGI [4] was 33.5 µM, the TGI [5] was 6.2 µM and the TGI [6] was 30.7 µM. It also gave a TGI [7] of 37.3 µM, a TGI [8] of over 100 µM and a TGI [9] of 9.47 µM. The TGI [10] was 15.3 µM, the TGI [11] was 5.32 µM and the TGI [12] was over 100 µM. For the same compound, the TGI [13] was over 100 µM, the TGI [14] was 4.3 µM and the TGI [15] was 5.88 µM. The TGI [16] was over 100 µM, the TGI [17] was 3.7 µM and the TGI [18] was over 100 µM. For the same compound, the TGI [19] was 23.5 µM, the TGI [20] was 11.4 µM and the TGI [21] was 8.97 µM. The TGI [22] was 3.76 µM, the TGI [23] was 6.97 µM and the TGI [24] was over 100 µM. The TGI [25] was over 100 µM, the TGI [26] was over 100 µM and the TGI [27] was over 100 µM. The TGI [28] was over 100 µM, the TGI [29] was 27.6 µM and the TGI [30] was over 100 µM. The TGI [31] was 21.4 µM, the TGI [32] was over 100 µM and the TGI [33] was over 100 µM. For the same compound, the TGI [34] was over 100 µM, the TGI [35] was 47.2 µM and the TGI [36] was over 100 µM. For the same compound, the TGI [37] was 9.14 µM, the TGI [38] was over 100 µM and the TGI [39] was 16.7 µM. It also gave a TGI [40] of over 100 µM, a TGI [41] of 18.9 µM and a TGI [42] of 4.63 µM. It also gave a TGI [43] of over 100 µM, a TGI [44] of 3.64 µM and a TGI [45] of over 100 µM. For the same compound, the TGI [46] was over 100 µM and the TGI [47] was 3.46 µM.

For `O=[As]O`, the TGI [1] was 18.5 µM, the TGI [48] was over 61.8 µM and the TGI [2] was over 100 µM. The TGI [49] was over 100 µM, the TGI [3] was over 93.5 µM and the TGI [4] was over 100 µM. For the same compound, the TGI [5] was over 100 µM, the TGI [50] was over 100 µM and the TGI [6] was over 93.3 µM. For the same compound, the TGI [51] was over 100 µM, the TGI [52] was over 100 µM and the TGI [7] was over 100 µM. It also gave a TGI [53] of over 100 µM, a TGI [54] of over 100 µM and a TGI [8] of over 100 µM. The TGI [55] was 63.6 µM, the TGI [9] was over 100 µM and the TGI [10] was over 100 µM. It also gave a TGI [11] of over 100 µM, a TGI [56] of over 100 µM and a TGI [12] of over 74.4 µM. It also gave a TGI [13] of over 89.5 µM, a TGI [14] of over 100 µM and a TGI [57] of over 100 µM. For the same compound, the TGI [58] was over 100 µM, the TGI [15] was over 96.1 µM and the TGI [16] was over 66.8 µM. It also gave a TGI [17] of over 100 µM, a TGI [18] of over 100 µM and a TGI [19] of over 100 µM. For the same compound, the TGI [20] was over 100 µM, the TGI [21] was over 91.5 µM and the TGI [22] was over 100 µM. For the same compound, the TGI [23] was over 71.5 µM, the TGI [24] was over 95.1 µM and the TGI [25] was over 100 µM. For the same compound, the TGI [59] was over 60.5 µM, the TGI [26] was over 60.4 µM and the TGI [60] was over 100 µM. The TGI [27] was over 100 µM, the TGI [28] was over 70.1 µM and the TGI [29] was over 100 µM. For the same compound, the TGI [31] was over 100 µM, the TGI [32] was over 100 µM and the TGI [33] was 40.3 µM. It also gave a TGI [34] of over 100 µM, a TGI [61] of over 74.1 µM and a TGI [35] of over 100 µM. It also gave a TGI [62] of over 100 µM, a TGI [36] of over 100 µM and a TGI [37] of 97.2 µM. For the same compound, the TGI [63] was over 100 µM, the TGI [38] was over 100 µM and the TGI [39] was over 52.8 µM. It also gave a TGI [40] of over 100 µM, a TGI [41] of 36.8 µM and a TGI [64] of over 100 µM. For the same compound, the TGI [65] was 96.9 µM, the TGI [42] was over 100 µM and the TGI [66] was over 100 µM. For the same compound, the TGI [67] was over 100 µM, the TGI [43] was over 100 µM and the TGI [44] was over 59.9 µM. The TGI [68] was over 100 µM, the TGI [45] was 22.5 µM and the TGI [46] was over 100 µM. It also gave a TGI [47] of over 54.3 µM and a TGI [69] of over 59.3 µM.

— PubChem BioAssay (NCI)
